Reference: patent US20090192123A1, “Use of dipyridamole or mopidamole for treatment and prevention of thrombo-embolic diseases and disorders caused by excessive formation of Thrombin and/or by elevated expression of Thrombin receptors” (BOEHRINGER INGELHEIM INTERNATIONAL GMBH, priority 2003, published 2009)

Key:
[1] = tested on: Thrombin receptor (PAR-1); experiment: Thrombin receptor (PAR-1) expression on platelets of post-stroke patients during treatment, flow cytometry with antibodies; assay type: in vivo, human; conditions: for Thrombin receptor (PAR-1) SPAN 12 (intact receptor) / Thrombin receptor (PAR-1) WEDE 15 (cleaved receptor): platelets of stroke patients, relative number, mean ± SD; for Change of intact (complete) and cleaved Thrombin receptor expression on platelets, in words: stroke patients, course of treatment of 30 days / one month, platelets ex vivo
Experimental: In order to study the inhibition of Thrombin receptor expression, patients surviving a stroke have been treated with conventional antiplatelet therapy (oral ASA) or a combination of Dipyridamole and ASA (Aggrenox) and thrombin receptor expression was measured during the course of treatment of one month. The expression of the complete as well as the cleaved Thrombin receptor was measured by flow cytometry using well established antibody technology on platelets after venipuncture.
Inhibition of Thrombin Receptor Expression in Platelets—by the Dipyridamole
Table 1 represents the mean and standard deviation of the relative numbers of expressed intact as well as cleaved Thrombin receptors on platelets over time after initiation of treatment with either ASA or the combination of Dipyridamole and ASA.

[2] = ESPS-2 clinical study, compared with low-dose aspirin / aspirin alone; cited from earlier work
[3] = Baseline (n = 15), flow cytometry

Row | Structure (SMILES) | Thrombin receptor (PAR-1) SPAN 12 (intact receptor) ([1]; 24 hr of treatment (n = 15)) | Thrombin receptor (PAR-1) WEDE 15 (cleaved receptor) ([1]; 24 hr of treatment (n = 15)) | Thrombin receptor (PAR-1) SPAN 12 (intact receptor) ([1]; 3 days of treatment (n = 15)) | Thrombin receptor (PAR-1) WEDE 15 (cleaved receptor) ([1]; 3 days of treatment (n = 15)) | Thrombin receptor (PAR-1) SPAN 12 (intact receptor) ([1]; 7 days of treatment (n = 15)) | Thrombin receptor (PAR-1) WEDE 15 (cleaved receptor) ([1]; 7 days of treatment (n = 15)) | Thrombin receptor (PAR-1) SPAN 12 (intact receptor) ([1]; 15 days of treatment (n = 14)) | Thrombin receptor (PAR-1) WEDE 15 (cleaved receptor) ([1]; 15 days of treatment (n = 14)) | Thrombin receptor (PAR-1) SPAN 12 (intact receptor) ([1]; 30 days of treatment (n = 12)) | Thrombin receptor (PAR-1) WEDE 15 (cleaved receptor) ([1]; 30 days of treatment (n = 12)) | Thrombin receptor (PAR-1) SPAN 12 (intact receptor) [1, 3] | Thrombin receptor (PAR-1) WEDE 15 (cleaved receptor) [1, 3] | Change of intact (complete) and cleaved Thrombin receptor expression on platelets, in words [1] | Reduction of stroke risk, in words [2]
1 | CC(=O)Oc1ccccc1C(=O)O [ASA, acetylsalicalic acid] | 37 ± 7 | 21.9 ± 4.6 | 28 ± 9 | 15.3 ± 3.3 | 24 ± 5 | 17.1 ± 6.1 | 26 ± 4.* | 16.9 ± 7.5 | 22 ± 7 | 14.2 ± 5.0 | 34 ± 7 | 21.0 ± 5.3 | mild reduction | –
2 | OCCN(CCO)c1nc(N2CCCCC2)c2nc(N(CCO)CCO)nc(N3CCCCC3)c2n1 [Dipyridamole, 2,6-bis(diethanolamino)-4,8-dipiperidino-pyrimido[5,4-d]pyrimidine] | – | – | – | – | – | – | – | – | – | – | – | – | significant reduction | as effective as low-dose aspirin
